According to patent US11136362B2, “Peptide modulators of specific calcineurin protein-protein interactions” (The Board of Trustees of the Leland Stanford Junior …, priority 2016, dated 2021):
Where two headings read alike, the source gives them in different places. Ends that are not written are not given here.

What was measured:
TRPV1 = biological target: T1, TRPV1 (Homo sapiens, UniProt Q8NER1); settings: in vivo; cited from earlier work
T1 construct: host or cells: human trial subjects (endogenous)

[1] = test system: primary neonatal cardiomyocytes (PNCM); assay: Mitochondrial membrane potential by live cell imaging (TMRE/CMXRos), normoxia; type: cell-based, rat
Excerpt: • Primary Neonatal Cardiomyocyte Isolation: Rat pups 1-3 days of age were used for primary neonatal cardiomyocyte isolation as previously described (Disatnik et al., Journal of the American Heart Association, 2013. 2:e000461). • Peptide Synthesis: Peptides were synthesized using microwave chemistry on a Liberty Microwave Peptide Synthesizer (CEM Corporation) (Gross et al., Basic Research in Cardiology, 2013. 108:381). Peptides were synthesized as one polypeptide with TAT47-57 carrier in the following order: N-terminus-TAT47-57-spacer (Gly-Gly)-cargo-C-terminus. • RT PCR: Total RNA was isolated from PNCM on day 4 in culture and H9C2 cells at passages 18, 23, 24 (Ambion RNAqueous kit). To reduce DNA contamination in the preparations, the isolated total RNA was subject to precipitation with lithium chloride and DNase digestion (Ambion DNase free). cDNA was generated from mRNA using Takara Primescript cDNA synthesis kit with oligo dT primers. Previously described primers, forward: […] (SEQ ID NO:112) and reverse: […] […] The amplified PCR product was subcloned into the pCR TOPO vector (Invitrogen) and sequenced. • Quantitative PCR: cDNA from mRNA was generated from H9C2, PNCM, and heart tissues (RA, LA, RV, LV) as described above. […]

Sprague-Dawley rats [2] = test system: Sprague-Dawley rats
Sprague-Dawley rats [3] = type: in vivo, rat; settings: for HR / MAP / RPP: CAP 0.3 mg/kg, CsA 2.5 mg/kg, V1-cal 1 mg/kg, given 5 minutes prior to reperfusion
H9C2 cells = assay: H9C2 cell model of ischemia-reoxygenation, lactate dehydrogenase release; type: cell-based
isolated rat hearts = assay: Isolated heart model of ischemia-reperfusion injury; settings: for heart rate when infused: 10 minutes prior to ischemia
Sprague-Dawley rats [4] = assay: In vivo rat remote conditioning (abdominal incision before LAD ischemia-reperfusion)
[5] = test system: Sprague-Dawley TRPV1 knockout rats; assay: In vivo LAD ischemia-reperfusion injury model in TRPV1 knockout rats; parameters: species or system rat
[6] = Peptide stability, trypsin digestion analyzed by RP-HPLC; type: in vitro ADME; settings: 20 minutes after exposure to trypsin; read-out: degraded
Experimental: FIG. 12: Determination of peptide stability. A. At baseline a single peak at 5 minutes was noted when V1-cal was analyzed by RP-HPLC (arrow in green). B. 10 minutes after trypsin digestion, V1-cal is still detected (arrow in green), yet is 75% degraded with the with multiple peaks detected as degradation products of V1-cal (black arrows). C. 20 minutes after exposure to trypsin, V1-cal is 100% degraded (with no peak at 5 minutes and multiple other peaks shown with black arrows detected).

[7] = 15 min Ischemia, capsaicin 0.1 mg/kg
[8] = 15 min Ischemia, capsaicin 0.3 mg/kg
[9] = 15 min Ischemia, capsaicin 1.0 mg/kg
[10] = 15 min Ischemia, capsaicin 3.0 mg/kg
[11] = 2 hrs Reperfusion, capsaicin 0.1 mg/kg
[12] = 2 hrs Reperfusion, capsaicin 0.3 mg/kg
[13] = 2 hrs Reperfusion, capsaicin 1.0 mg/kg
[14] = 2 hrs Reperfusion, capsaicin 3.0 mg/kg

T1 sequence (Q8NER1 whole entry): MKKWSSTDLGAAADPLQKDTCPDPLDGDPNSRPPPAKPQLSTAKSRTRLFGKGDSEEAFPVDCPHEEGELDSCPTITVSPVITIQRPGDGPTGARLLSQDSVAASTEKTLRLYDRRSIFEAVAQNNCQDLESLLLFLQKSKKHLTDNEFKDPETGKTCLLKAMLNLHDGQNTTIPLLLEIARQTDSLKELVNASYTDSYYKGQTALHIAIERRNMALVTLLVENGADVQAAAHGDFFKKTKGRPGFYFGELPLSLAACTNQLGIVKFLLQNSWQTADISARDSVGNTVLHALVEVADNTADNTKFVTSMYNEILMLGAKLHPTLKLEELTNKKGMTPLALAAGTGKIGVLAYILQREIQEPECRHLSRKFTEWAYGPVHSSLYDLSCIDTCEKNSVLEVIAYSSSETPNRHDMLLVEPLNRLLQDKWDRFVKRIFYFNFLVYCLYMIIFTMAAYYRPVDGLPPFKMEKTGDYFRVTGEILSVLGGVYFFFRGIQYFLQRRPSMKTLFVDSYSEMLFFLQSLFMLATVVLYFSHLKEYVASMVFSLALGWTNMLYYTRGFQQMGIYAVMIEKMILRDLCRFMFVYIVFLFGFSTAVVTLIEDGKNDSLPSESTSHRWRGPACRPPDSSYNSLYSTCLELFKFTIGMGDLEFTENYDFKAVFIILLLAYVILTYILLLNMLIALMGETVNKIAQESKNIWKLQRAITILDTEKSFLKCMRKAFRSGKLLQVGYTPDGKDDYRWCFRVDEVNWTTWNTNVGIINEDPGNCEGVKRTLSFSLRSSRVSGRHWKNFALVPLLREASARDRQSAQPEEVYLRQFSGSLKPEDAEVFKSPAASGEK

CC(=O)Nc1nc2c(Oc3cc(-c4ccc(C(F)(F)F)cc4)ncn3)cccc2s1 [AMG517]
adverse effect in human clinical trials (TRPV1): caused hyperthermia

COc1cc(CNC(=O)CCCC/C=C/C(C)C)ccc1O [capsaicin]
mitochondrial membrane potential (TMRE) ([1]; 0.1-10 μM, over 30 minutes): dose-dependently decreased mitochondrial membrane potential | infarct size (Sprague-Dawley rats [2]; 0.1 mg/kg and 1.0 mg/kg): partial effects | infarct size (Sprague-Dawley rats [2]; 0.3 mg/kg): maximally decreased infarct size | myocardial infarct size (Sprague-Dawley rats [2]; 3.0 mg/kg): failed to reduce myocardial infarct size | myocardial infarct size (Sprague-Dawley rats [2]; 0.1-1.0 mg/kg): reduced myocardial infarct size | heart rate after intravenous administration (Sprague-Dawley rats [2]; 0.1-3.0 mg/kg intravenously): dose-dependently increased heart rate | HR (Sprague-Dawley rats [2]; [7]): 373 ± 10 beats/min | MAP (Sprague-Dawley rats [2]; [7]): 110 ± 7 mmHg | RPP (Sprague-Dawley rats [2]; [7]): 47 ± 4 mmHg/1000 | HR (Sprague-Dawley rats [2]; [8]): 360 ± 21 beats/min | MAP (Sprague-Dawley rats [2]; [8]): 89 ± 14 mmHg | RPP (Sprague-Dawley rats [2]; [8]): 40 ± 7 mmHg/1000 | HR (Sprague-Dawley rats [2]; [9]): 385 ± 15 beats/min | MAP (Sprague-Dawley rats [2]; [9]): 104 ± 10 mmHg | RPP (Sprague-Dawley rats [2]; [9]): 46 ± 5 mmHg/1000 | HR (Sprague-Dawley rats [2]; [10]): 420 ± 9 beats/min | MAP (Sprague-Dawley rats [2]; [10]): 113 ± 5 mmHg | RPP (Sprague-Dawley rats [2]; [10]): 53 ± 3 mmHg/1000 | HR (Sprague-Dawley rats [2]; [11]): 362 ± 6 beats/min | MAP (Sprague-Dawley rats [2]; [11]): 86 ± 5 mmHg | RPP (Sprague-Dawley rats [2]; [11]): 39 ± 2 mmHg/1000 | HR (Sprague-Dawley rats [2]; [12]): 368 ± 6 beats/min | MAP (Sprague-Dawley rats [2]; [12]): 85 ± 3 mmHg | RPP (Sprague-Dawley rats [2]; [12]): 38 ± 2 mmHg/1000 | HR (Sprague-Dawley rats [2]; [13]): 367 ± 3 beats/min | MAP (Sprague-Dawley rats [2]; [13]): 79 ± 3 mmHg | RPP (Sprague-Dawley rats [2]; [13]): 36 ± 2 mmHg/1000 | HR (Sprague-Dawley rats [2]; [14]): 370 ± 4 beats/min | MAP (Sprague-Dawley rats [2]; [14]): 72 ± 4 mmHg | RPP (Sprague-Dawley rats [2]; [14]): 35 ± 2 mmHg/1000 | HR (Sprague-Dawley rats [2]; Baseline, capsaicin 0.1 mg/kg): 377 ± 13 beats/min | MAP (Sprague-Dawley rats [2]; Baseline, capsaicin 0.1 mg/kg): 128 ± 4 mmHg | RPP (Sprague-Dawley rats [2]; Baseline, capsaicin 0.1 mg/kg): 60 ± 5 mmHg/1000 | HR (Sprague-Dawley rats [2]; Baseline, capsaicin 0.3 mg/kg): 370 ± 11 beats/min | MAP (Sprague-Dawley rats [2]; Baseline, capsaicin 0.3 mg/kg): 137 ± 7 mmHg | RPP (Sprague-Dawley rats [2]; Baseline, capsaicin 0.3 mg/kg): 60 ± 5 mmHg/1000 | HR (Sprague-Dawley rats [2]; Baseline, capsaicin 1.0 mg/kg): 353 ± 11 beats/min | MAP (Sprague-Dawley rats [2]; Baseline, capsaicin 1.0 mg/kg): 131 ± 6 mmHg | RPP (Sprague-Dawley rats [2]; Baseline, capsaicin 1.0 mg/kg): 55 ± 3 mmHg/1000 | HR (Sprague-Dawley rats [2]; Baseline, capsaicin 3.0 mg/kg): 357 ± 8 beats/min | MAP (Sprague-Dawley rats [2]; Baseline, capsaicin 3.0 mg/kg): 127 ± 4 mmHg | RPP (Sprague-Dawley rats [2]; Baseline, capsaicin 3.0 mg/kg): 53 ± 2 mmHg/1000 | HR (Sprague-Dawley rats [3]; 15 min Ischemia): 377 ± 11 beats/min | MAP (Sprague-Dawley rats [3]; 15 min Ischemia): 118 ± 10 mmHg | RPP (Sprague-Dawley rats [3]; 15 min Ischemia): 51 ± 5 mmHg/1000 | HR (Sprague-Dawley rats [3]; 2 hrs Reperfusion): 363 ± 9 beats/min | MAP (Sprague-Dawley rats [3]; 2 hrs Reperfusion): 87 ± 7 mmHg | RPP (Sprague-Dawley rats [3]; 2 hrs Reperfusion): 39 ± 3 mmHg/1000 | HR (Sprague-Dawley rats [3]; Baseline): 370 ± 6 beats/min | MAP (Sprague-Dawley rats [3]; Baseline): 134 ± 3 mmHg | RPP (Sprague-Dawley rats [3]; Baseline): 58 ± 2 mmHg/1000 | myocardial infarct size (Sprague-Dawley rats [3]; given just prior to reperfusion, n=6/group, control 61±2%): 45±1% | infarct size reduction when compared to control (Sprague-Dawley rats [3]; single intravenous bolus 5 minutes prior to reperfusion): 27% | LDH release (H9C2 cells; 0.1 μM): reduced LDH release | reduction of LDH release (H9C2 cells; 1 and 10 μM): did not occur | heart rate, isolated un-paced rat hearts (isolated rat hearts; capsaicin 0.1 μM versus vehicle (DMSO)): increased heart rate during the first 15 minutes of infusion

Oc1cc2c(cc1O)CN(C(=S)NCCc1ccc(Cl)cc1)CCC2 [capsazepine]
changes in mitochondrial membrane potential induced by capsaicin ([1]; treated 10 minutes prior to capsaicin): blocked | infarct size sparing effect of capsaicin (Sprague-Dawley rats [2]; CPZ 3 mg/kg, CsA 2.5 mg/kg, 40 minutes prior to ischemia): blocked the infarct size sparing effect of capsaicin | change in heart rate afforded by capsaicin (Sprague-Dawley rats [2]; capsaicin 0.3 mg/kg, CPZ 3 mg/kg, CsA 2.5 mg/kg): reduced the change in heart rate | effect on incision-induced infarct size reduction (Sprague-Dawley rats [4]; 3 mg/kg, internal jugular vein, 10 minutes before the incision): blocked | HR (heart rate) (Sprague-Dawley rats [4]; 15 min Ischemia): 396 ± 10 beats/min | MAP (mean arterial pressure) (Sprague-Dawley rats [4]; 15 min Ischemia): 115 ± 9 mmHg | RPP (rate pressure product) (Sprague-Dawley rats [4]; 15 min Ischemia): 52 ± 5 mmHg/1000 | HR (heart rate) (Sprague-Dawley rats [4]; 2 hrs Reperfusion): 374 ± 5 beats/min | MAP (mean arterial pressure) (Sprague-Dawley rats [4]; 2 hrs Reperfusion): 82 ± 3 mmHg | RPP (rate pressure product) (Sprague-Dawley rats [4]; 2 hrs Reperfusion): 39 ± 1 mmHg/1000 | HR (heart rate) (Sprague-Dawley rats [4]; Baseline): 384 ± 5 beats/min | MAP (mean arterial pressure) (Sprague-Dawley rats [4]; Baseline): 121 ± 4 mmHg | RPP (rate pressure product) (Sprague-Dawley rats [4]; Baseline): 55 ± 2 mmHg/1000 | infarct size, agent alone, compared to control (Sprague-Dawley rats [4]; capsazepine alone): no differences were noted for infarct size compared to the control group

YGRKKRRQRRRGGAIIITILDTEIS [A5-cal]
heart rate when infused (isolated rat hearts): neither peptide had any effects on heart rate

YGRKKRRQRRRGGRAITILDTEKS [V1-cal]
HR (Sprague-Dawley rats [3]; 15 min Ischemia): 432 ± 10 beats/min | MAP (Sprague-Dawley rats [3]; 15 min Ischemia): 110 ± 5 mmHg | RPP (Sprague-Dawley rats [3]; 15 min Ischemia): 47 ± 3 mmHg/1000 | HR (Sprague-Dawley rats [3]; 2 hrs Reperfusion): 389 ± 15 beats/min | MAP (Sprague-Dawley rats [3]; 2 hrs Reperfusion): 68 ± 5 mmHg | RPP (Sprague-Dawley rats [3]; 2 hrs Reperfusion): 26 ± 3 mmHg/1000 | HR (Sprague-Dawley rats [3]; Baseline): 428 ± 6 beats/min | MAP (Sprague-Dawley rats [3]; Baseline): 115 ± 5 mmHg | RPP (Sprague-Dawley rats [3]; Baseline): 49 ± 3 mmHg/1000 | HR ([5]; 15 min Ischemia): 446 ± 13 beats/min | MAP ([5]; 15 min Ischemia): 114 ± 7 mmHg | RPP ([5]; 15 min Ischemia): 56 ± 4 mmHg/1000 | TIME ([5]; 15 min Ischemia): 37.1 ± 0.1 | MAP ([5]; 2 hrs Reperfusion): 84 ± 8 mmHg | RPP ([5]; 2 hrs Reperfusion): 40 ± 4 mmHg/1000 | TIME ([5]; 2 hrs Reperfusion): 37 ± 0.1 | HR ([5]; Baseline): 439 ± 12 beats/min | MAP ([5]; Baseline): 123 ± 6 mmHg | RPP ([5]; Baseline): 61 ± 4 mmHg/1000 | TIME ([5]; Baseline): 36.9 ± 0.2 | metabolised at 20 min [6]: 100% | heart rate when infused (isolated rat hearts): neither peptide had any effects on heart rate
